Experiments:
[1] = Dynamic Vapour Sorption (DVS) hygroscopicity; type: physicochemical; conditions: 25° C., water, humidity change 0-95-0-95-0% RH; FIGS. 8 and 9
Experimental: 3. Dynamic Vapour Sorption, DVS
Instrument type: DVS advantage
The crude product N-((4,6-dimethyl-2-oxo-1,2-dihydropyridin-3 -yl)methyl)-5 -ethyl-6-(ethyl(tetrahydro-2 H-pyran-4-yl)amino)-2-(piperidin-1-ylmethyl)benzofuran-4-carboxamide (50 mg, 0.091 mmol) obtained in Comparative example 1 was added to a reaction flask, and methanol (100 μL) was added. The solution was stirred at 25° C. for five days, filtrated and dried under vacuum to obtain a white to pale yellow powder. The DSC spectrum is shown in FIG. 7, in which the onset melting temperature is about 205.45° C.

[2] = Long-term, accelerated stability of crystal forms B and D (XRPD); type: physicochemical; conditions: Day 20; for change of XRPD peaks / crystal form stability: spread flat in the air
Experimental: 2. X-ray Powder Diffraction, XRPD
Instrument type: BRUKER D8 Discover A25 X-ray powder diffractometer
Ray: monochromatic Cu—Kα ray (λ=1.5406 Å)
Scanning mode: θ/2,θ Scanning range: 10-48°
Voltage: 40 kV, Electric current: 40 mA
The sample of crystal form B was spread flat in the air to test sample stability under conditions of 25° C.-65% relative humidity (RH), and the sampling time was Day 20. The sample of crystal form D was spread flat in the air to test sample stability under conditions of 40° C.-75% RH and 25° C.-65% RH, and the sampling time was Day 20.

Compound	hygroscopicity (DVS diagrams) [1]	physical stability compared between crystal forms ([2]; 25° C.-65%RH)	change of XRPD peaks / crystal form stability ([2]; 40° C.-75% RH)	change of XRPD peaks / crystal form stability ([2]; 25° C.-65% RH)
CCc1c(N(CC)C2CCOCC2)cc2oc(CN3CCCCC3)cc2c1C(=O)NCc1c(C)cc(C)[nH]c1=O [crystal form D, N-((4,6-dimethyl-2-oxo-1,2-dihydropyridin-3-yl)methyl)-5-ethyl-6-(ethyl(tetrahydro-2 H-pyran-4-yl)amino)-2-(piperidin-1-ylmethyl)benzofuran-4-carboxamide]	no obvious hygroscopicity	better than that of crystal form B	has not changed substantially	
CCc1c(N(CC)C2CCOCC2)cc2oc(CN3CCCCC3)cc2c1C(=O)NCc1c(C)cc(C)[nH]c1=O [crystal form B, N-((4,6-dimethyl-2-oxo-1,2-dihydropyridin-3-yl)methyl)-5-ethyl-6-(ethyl(tetrahydro-2 H-pyran-4-yl)amino)-2-(piperidin-1-ylmethyl)benzofuran-4-carboxamide]				has changed significantly

— patent US11155537B2, “Crystal of benzofuran derivative free base and preparation method” (Jiangsu Hengrui Medicine Co., Ltd., priority 2017, dated 2021)
